Reference: US7999001B2 (priority 2007, dated 2011)
Like-named read-outs stand apart in the source and are kept apart here.

Tested on: EBOV-GFP (recombinant Ebola Zaire virus expressing green fluorescence protein)
Assay: microbe, parasite or virus in culture
Format: cell-based
Settings: for inhibition at 20 µM: Zaire ebolavirus, Vero C1008, 48 h, read-out: EBOV % Inhibition (20 μM)

Row | SMILES | inhibition at 20 µM [%] | further results
1 | CCN(CC)CCCNc1nc(C)cc(Nc2ccc3nc(C)cc(N)c3c2)n1 [NSC 23767, N^6-(2-((3-(diethylamino)propyl)amino)-6-methyl-4-pyrimidinyl)-2-methyl-4,6-quinolinediamine] | 74.1 | –
2 | O=C1C(SCCO)=C(SCCO)C(=O)c2ccccc21 [NSC 95397, 2,3-bis((2-hydroxyethyl)thio)naphthoquinone] | – | EBOV % Inhibition (20 μM): 75.3%
3 | Cc1c2ccncc2c(C)c2c1[nH]c1ccc(O)cc12 [NSC 264136, 5,11-dimethyl-6H-pyrido[4,3-b]carbazol-9-ol] | 63.1 | –
4 | N=C(N)c1ccc2oc(/C=C/c3cc4cc(C(=N)N)ccc4s3)cc2c1 [NSC 266472, 2-[(E)-2-(5-carbamimidoylbenzothiophen-2-yl)ethenyl]benzofuran-5-carboximidamide] | 67.5 | –
5 | C(=C\c1cc2cc(C3=NCCN3)ccc2o1)/c1cc2cc(C3=NCCN3)ccc2o1 [NSC 278999, 2-[2-[(E)-2-[5-(4,5-dihydro-1H-imidazol-2-yl)benzofuran-2-yl]ethenyl]benzofuran-5-yl]-4,5-dihydro-1H-imidazole] | 55.6 | –
6 | N=C(N)c1ccc2[nH]c(/C=C/c3cc4cc(C(=N)N)ccc4o3)cc2c1 [NSC 290107, 2-[(E)-2-(5-carbamimidoylbenzofuran-2-yl)ethenyl]-1H-indole-5-carboximidamide] | 33.6 | –
7 | O=C(Nc1ccc(C2=NCCN2)cc1)c1cc2cc(C3=NCCN3)ccc2o1 [NSC 290111, 5-(4,5-dihydro-1H-imidazol-2-yl)-N-[4-(4,5-dihydro-1H-imidazol-2-yl)phenyl]benzofuran-2-carboxamide] | 40 | –
8 | O=C(Nc1ccc(C2=NCCN2)cc1)c1cc2ccc(C3=NCCN3)cc2o1 [NSC 294208, 6-(4,5-dihydro-1H-imidazol-2-yl)-N-[4-(4,5-dihydro-1H-imidazol-2-yl)phenyl]benzofuran-2-carboxamide] | 38.8 | –
9 | N=C(N)c1ccc2oc(/C=C/C=C/c3cc4cc(C(=N)N)ccc4o3)cc2c1 [NSC 300511, 2-[(1E,3E)-4-(5-carbamimidoylbenzofuran-2-yl)buta-1,3-dienyl]benzofuran-5-carboximidamide] | 49.2 | –
10 | C(=C\c1cc2cc(C3=NCCN3)ccc2o1)/c1ccc(C2=NCCN2)cc1 [NSC 308570, 2-[2-[(E)-2-[4-(4,5-dihydro-1H-imidazol-2-yl)phenyl]ethenyl]benzofuran-5-yl]-4,5-dihydro-1H-imidazole] | 30.7 | –
11 | C(/C=C/c1cc2cc(C3=NCCN3)ccc2o1)=C\c1cc2cc(C3=NCCN3)ccc2o1 [NSC 308571, 2-[2-[(1E,3E)-4-[5-(4,5-dihydro-1H-imidazol-2-yl)benzofuran-2-yl]buta-1,3-dienyl]benzofuran-5-yl]-4,5-dihydro-1H-imidazole] | 61.2 | –
12 | N=C(N)c1ccc(/C=C/C=C/c2cc3cc(C(=N)N)ccc3o2)cc1 [NSC 308572, 2-[(1E,3E)-4-(4-carbamimidoylphenyl)buta-1,3-dienyl]benzofuran-5-carboximidamide] | 32.8 | –
13 | C(/C=C/c1cc2cc(C3=NCCN3)ccc2o1)=C\c1ccc(C2=NCCN2)cc1 [NSC 308573, 2-[2-[(1E,3E)-4-[4-(4,5-dihydro-1H-imidazol-2-yl)phenyl]buta-1,3-dienyl]benzofuran-5-yl]-4,5-dihydro-1H-imidazole] | 54.2 | –
14 | c1cc(-c2[nH]c3cc(C4=NCCN4)ccc3c2-c2cc3ccc(C4=NCCN4)cc3[nH]2)ccc1C1=NCCN1 [NSC 341911, 6-(4,5-dihydro-1H-imidazol-2-yl)-3-[6-(4,5-dihydro-1H-imidazol-2-yl)-1H-indol-2-yl]-2-[4-(4,5-dihydro-1H-imidazol-2-yl)phenyl]-1H-indole] | 33.2 | –
15 | c1cc(-c2[nH]c3cc(C4=NCCN4)ccc3c2-c2cc3ccc(C4=NCCN4)cc3[nH]2)ccc1C1=NCCN1 [NSC 352341, 6-(4,5-dihydro-1H-imidazol-2-yl)-3-[6-(4,5-dihydro-1H imidazol-2-yl)-1H-indol-2-yl]-2-[4-(4,5-dihydro-1H-imidazol-2-yl)phenyl]-1H-indole] | – | EBOV % Inhibition (20 μM) (20 µM): 41.2%
